Experimental findings from patent US10188743B2, “Cytisine-linked isoflavonoid antineoplastic agents for the treatment of cancer” (UNIVERSITY OF KENTUCKY RESEARCH FOUNDATION, priority 2016, dated 2019) are described below.

Each structure is given as a SMILES string.

One experiment concerns LS174T cancer cells. Description: Acetyl-CoA analysis of treated cells. The class given is cell-based. The procedure:
Cell Metabolism. Acetyl-CoA analysis: Cells grown in 6 cm plates were treated with DMSO or inhibitors, and harvested in lysis buffer (20 mM Tris pH 7.5, 150 mM NaCl, 1 mM EDTA, 1 mM EGTA, 1% Triton X-100, 2.5 mM sodium pyrophosphate, 1 mM Na3VO4, 1 ug/mL Leupeptin, 1 mM PMSF and 1:100 Protease inhibitor cocktail). Supernatants were analyzed using PicoProbe Acetyl CoA kit (Abcam, ab87546).

A further experiment concerns S6. Description: S6 phosphorylation, mTor pathway (Western blotting). Format: cell-based. The settings on record: PC-3 and LS174T cells. The protocol: Biochemistry. Western blotting: Cells were lysed in the appropriate volume of lysis buffer (50 mM HEPES, 100 mM NaCl, 2 mM EDTA, 1% glycerol, 50 mM NaF, 1 mM Na3VO4, 1% Triton X-100, with protease inhibitors). The following antibodies were used: HSD17B4 (GeneTex, GTX103864), AMPK (Cell Signaling, 2532), pAMPK (Cell Signaling, 2535), ACC (Cell Signaling, 3676), pACC (Cell Signaling, 11818), p^70 (Cell Signaling, 2708), p-p^70 (Cell Signaling, 9914), S6 (Cell Signaling, 2217), pS6 (Cell Signaling, 4858), MCCA (GeneTex, GTX110062), tubulin (Hybridoma Bank, E7), Actin (Sigma, A1978), His-tag (BD Pharmingen, 552564).
For orientation: In western blotting, separated proteins are transferred to a membrane and probed.

In the case of `O=c1c(-c2ccc(Cl)cc2)coc2cc(OCCN3C[C@@H]4C[C@@H](C3)c3cccc(=O)n3C4)ccc12` [Compound 10c, (1 S,5S)-3-(2-((3-(4-chlorophenyl)-4-oxo-4H-chromen-7-yl)oxy)ethyl)-3,4,5,6-tetrahydro-1H-1,5-methanopyrido[1,2-a][1,5]diazocin-8(2H)-one], the “level of acetyl CoA” value with LS174T cancer cells was “decreased the levels”. Further, in the experiment with S6, the “phosphorylation of S6” value is “inhibited the phosphorylation”.
